Data as given in patent US6765127B1, “Invertebrate intestinal mucin cDNA and related products and methods” (Boyce Thompson Institute for Plant Research, Inc., priority 1998, dated 2004).

Experiments:
[1] = system: Hyphantria cunea; assay: PM formation with Calcofluor; format: in vivo
[2] = system: T. ni larvae; assay: PM formation in larvae fed Calcofluor; format: in vivo; settings: Calcofluor fed to T. ni larvae
From the text: (§1) Calcofluor is a fluorescent dye with high chitin binding affinity. It has been utilized in studies on the formation of fungi and algal cell walls which are protective structures containing chitin and proteins. Calcofluor interferes with the cell wall formation by binding to nascent chitin molecules during cell wall formation, thus blocking chitin fibril assembly. Similar investigations on insect midgut chitin fibril formation using the chitin binding agent Calcofluor had not been approached until our recent studies were carried out. […] These isolated proteins have high chitin binding properties and are normally not extractable from fully formed PMs by detergents or extreme pH conditions. […] We believe that this phenomenon is due to the disruption of chitin fibril formation by the binding of Calcofluor to nascent chitin molecules as observed in other organisms.

[3] = system: T. ni larvae; assay: Feeding T. ni larvae artificial diet containing Calcofluor; format: in vivo; settings: artificial diet containing 1% Calcofluor
[4] = system: T. ni PMs; assay: Extraction of chitin binding proteins from dissected PMs with Calcofluor
From the text: as §1

[5] = system: Lymantria dispar; assay: PM formation with Calcofluor; format: in vivo
[6] = system: T. ni larvae; assay: Baculovirus infection of Calcofluor treated larvae; format: in vivo; settings: Calcofluor disrupted PM formation
[7] = system: Helicoverpa zea; assay: PM formation with Calcofluor; format: in vivo
[8] = system: Pseudaletia unipuncta; assay: PM formation with Calcofluor; format: in vivo
[9] = molecular target: TnGV enhancin (Trichoplusia ni granulosis virus, UniProt P29998); settings: 10 mM EDTA in incubation buffer
Protocol: The degradation of IIM was examined by SDS/PAGE analysis. A parallel treatment of IIM without enhancin was included as a control. […] To confirm the metalloprotease nature of enhancin, IIM was incubated with TnGV enhancin in the presence of 10 mM EDTA.

[10] = system: endogenous midgut proteases; assay: Resistance of IIM in PMs to endogenous digestive proteases; set-up: species or system T. ni
From the text: The stability of the IIM when exposed to degestive enzymes for long periods is aided by the O-linked carbohydrate moieties found in associated glycoproteins. […] Control treatments using PMS with inactivated or inhibited endogenous midgut proteases, confirmed that the degradation of IIM in the presence of O-glycosidase was a result of hydrolysis by endogenous digestive proteases, following removal of the protective carbohydrate moiety, galactose β(1-3) N-acetylgalactosamine.

[11] = system: mucin isolated from Pseudaletia unipuncta peritrophic membranes
[12] = system: T1, invertebrate intestinal mucin (IIM) from Trichoplusia ni peritrophic membranes (native protein)
T1 sequence: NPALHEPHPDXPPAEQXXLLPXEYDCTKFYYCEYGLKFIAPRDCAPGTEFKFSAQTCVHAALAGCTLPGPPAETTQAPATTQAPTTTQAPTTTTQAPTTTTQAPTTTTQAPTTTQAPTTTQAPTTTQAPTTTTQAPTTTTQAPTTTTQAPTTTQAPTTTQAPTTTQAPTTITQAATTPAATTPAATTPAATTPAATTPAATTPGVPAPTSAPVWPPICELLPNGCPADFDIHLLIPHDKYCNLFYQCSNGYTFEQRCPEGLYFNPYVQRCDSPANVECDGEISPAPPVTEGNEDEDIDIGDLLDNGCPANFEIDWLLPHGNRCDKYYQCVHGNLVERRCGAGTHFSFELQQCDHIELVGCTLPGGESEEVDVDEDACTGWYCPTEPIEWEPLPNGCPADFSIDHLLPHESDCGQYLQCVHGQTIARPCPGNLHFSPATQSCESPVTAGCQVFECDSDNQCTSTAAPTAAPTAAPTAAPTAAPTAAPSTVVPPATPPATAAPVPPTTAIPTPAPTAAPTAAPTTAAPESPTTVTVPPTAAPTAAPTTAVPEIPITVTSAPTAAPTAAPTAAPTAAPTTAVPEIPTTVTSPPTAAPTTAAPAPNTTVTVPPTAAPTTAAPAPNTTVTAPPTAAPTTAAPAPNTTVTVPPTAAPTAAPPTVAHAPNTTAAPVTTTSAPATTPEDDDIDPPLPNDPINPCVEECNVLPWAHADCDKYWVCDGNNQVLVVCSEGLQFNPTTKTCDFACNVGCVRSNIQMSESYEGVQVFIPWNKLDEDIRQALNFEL

Sequence of TnGV enhancin (P29998 whole entry): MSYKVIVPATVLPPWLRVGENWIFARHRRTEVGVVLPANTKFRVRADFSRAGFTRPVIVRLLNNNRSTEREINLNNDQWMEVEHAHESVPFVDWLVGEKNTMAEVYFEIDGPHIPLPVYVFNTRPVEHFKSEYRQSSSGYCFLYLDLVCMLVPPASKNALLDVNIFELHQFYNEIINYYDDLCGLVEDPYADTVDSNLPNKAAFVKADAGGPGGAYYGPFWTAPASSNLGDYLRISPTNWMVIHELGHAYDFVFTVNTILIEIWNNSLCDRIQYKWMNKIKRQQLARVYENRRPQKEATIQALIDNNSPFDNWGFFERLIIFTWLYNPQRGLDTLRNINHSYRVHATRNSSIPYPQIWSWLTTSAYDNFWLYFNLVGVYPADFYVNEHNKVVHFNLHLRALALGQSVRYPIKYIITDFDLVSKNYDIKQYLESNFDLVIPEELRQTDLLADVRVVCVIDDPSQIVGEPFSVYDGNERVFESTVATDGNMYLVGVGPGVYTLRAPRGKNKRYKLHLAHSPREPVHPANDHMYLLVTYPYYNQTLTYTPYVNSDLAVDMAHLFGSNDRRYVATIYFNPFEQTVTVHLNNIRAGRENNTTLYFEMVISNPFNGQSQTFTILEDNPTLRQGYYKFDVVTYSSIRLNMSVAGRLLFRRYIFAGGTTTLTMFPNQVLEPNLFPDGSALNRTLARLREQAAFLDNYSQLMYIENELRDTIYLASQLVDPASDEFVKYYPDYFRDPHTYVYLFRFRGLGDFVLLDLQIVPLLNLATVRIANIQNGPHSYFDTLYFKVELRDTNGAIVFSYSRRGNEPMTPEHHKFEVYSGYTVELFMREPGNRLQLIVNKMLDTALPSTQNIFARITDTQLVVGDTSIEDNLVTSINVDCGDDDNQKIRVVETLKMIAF

Compound: O=S(=O)([O-])c1cc(Nc2nc(Nc3ccccc3)nc(N(CCO)CCO)n2)ccc1C=Cc1ccc(Nc2nc(Nc3ccccc3)nc(N(CCO)CCO)n2)cc1S(=O)(=O)[O-].[Na+].[Na+] [Calcofluor]
- PM disruption/inhibition [1]: further verified
- PM formation [2]: completely inhibited and/or disrupted PM formation
- insect mortality [3]: insect mortality
- larval growth [3]: significantly slowed the growth
- extraction of chitin binding proteins from dissected PMs [4]: extract and solubilize chitin binding proteins
- PM disruption/inhibition [5]: further verified
- baculovirus infections in the larvae [6]: significantly increased baculovirus infections
- PM disruption/inhibition [7]: further verified
- PM disruption/inhibition [8]: further verified

Compound: O=C(O)CN(CCN(CC(=O)O)CC(=O)O)CC(=O)O [EDTA]
- effect on digestion of IIM by TnGV enhancin [9]: blocked the digestion of the IIM

Compound: IIM: novel invertebrate intestinal mucin from T. ni peritrophic membranes; isoforms IIM14 and IIM22
- degradation of IIM in PMs by endogenous digestive proteases ([10]; in the presence of O-glycosidase): quickly degraded
- degradation of IIM in PMs by endogenous digestive proteases ([10]; sixteen hour incubation): no degradation

Compound: Trichoplusia ni granulosis virus (TnGV) enhancin
- degradation of the mucin [11]: This mucin is also degraded by the TnGV enhancin
- degradation of IIM examined by SDS/PAGE (in vitro, 1.25 µg/ml enhancin, 37° C., 3 hours or overnight) [12]: Incubation of IIM with TnGV enhancin showed that the enhancin had activity against IIM.
- digestion of IIM in the presence of 10 mM EDTA [12]: The addition of 10 mM EDTA to the incubation buffer blocked the digestion of the IIM and confirmed the metalloprotease nature of enhancin.
